SMILES strings stand for the structures. Bounds are passed on as bounds.

In assay [1] the target is T1, Peroxisome proliferator-activated receptor alpha (Homo sapiens, UniProt Q07869).
T1 sequence (Q07869 whole entry): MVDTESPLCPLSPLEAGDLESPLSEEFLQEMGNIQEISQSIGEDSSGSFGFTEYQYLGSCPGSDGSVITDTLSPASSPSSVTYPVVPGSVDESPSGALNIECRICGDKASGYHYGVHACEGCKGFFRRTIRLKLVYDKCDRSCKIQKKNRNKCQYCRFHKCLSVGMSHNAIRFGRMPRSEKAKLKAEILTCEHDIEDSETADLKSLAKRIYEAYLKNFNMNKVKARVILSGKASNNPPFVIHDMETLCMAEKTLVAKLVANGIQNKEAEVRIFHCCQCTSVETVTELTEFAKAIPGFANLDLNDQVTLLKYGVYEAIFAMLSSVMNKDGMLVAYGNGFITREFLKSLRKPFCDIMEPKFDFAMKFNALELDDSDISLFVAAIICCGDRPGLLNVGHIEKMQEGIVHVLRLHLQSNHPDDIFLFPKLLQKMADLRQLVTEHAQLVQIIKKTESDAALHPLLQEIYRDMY
The assay can be described thus: Agonist activity against human Peroxisome proliferator activated receptor alpha receptor in CV-1 cell was determined. In kind it is functional, cell-based.

For assay [2], the target named is T2, Peroxisome proliferator-activated receptor gamma (Homo sapiens, UniProt P37231).
T2 sequence (P37231 whole entry): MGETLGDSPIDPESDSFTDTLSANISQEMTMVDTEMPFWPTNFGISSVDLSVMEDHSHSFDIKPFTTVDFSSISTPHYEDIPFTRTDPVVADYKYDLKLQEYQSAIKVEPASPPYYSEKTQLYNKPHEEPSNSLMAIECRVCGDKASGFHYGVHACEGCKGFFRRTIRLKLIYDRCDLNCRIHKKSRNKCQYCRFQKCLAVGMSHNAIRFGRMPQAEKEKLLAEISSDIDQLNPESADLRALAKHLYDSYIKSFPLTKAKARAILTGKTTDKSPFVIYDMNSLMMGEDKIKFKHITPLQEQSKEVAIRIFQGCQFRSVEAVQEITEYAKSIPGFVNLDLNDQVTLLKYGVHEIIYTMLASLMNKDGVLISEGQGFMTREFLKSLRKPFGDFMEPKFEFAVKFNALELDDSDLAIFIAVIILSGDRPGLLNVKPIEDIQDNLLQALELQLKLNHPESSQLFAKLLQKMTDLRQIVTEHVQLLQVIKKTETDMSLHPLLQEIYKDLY
The assay can be described thus: Agonist activity against human Peroxisome proliferator activated receptor gamma receptor in CV-1 cell was determined. In kind it is functional, cell-based.

Assay [3] has as its target T3, Peroxisome proliferator-activated receptor delta (Homo sapiens, UniProt Q03181).
T3 sequence (Q03181 whole entry): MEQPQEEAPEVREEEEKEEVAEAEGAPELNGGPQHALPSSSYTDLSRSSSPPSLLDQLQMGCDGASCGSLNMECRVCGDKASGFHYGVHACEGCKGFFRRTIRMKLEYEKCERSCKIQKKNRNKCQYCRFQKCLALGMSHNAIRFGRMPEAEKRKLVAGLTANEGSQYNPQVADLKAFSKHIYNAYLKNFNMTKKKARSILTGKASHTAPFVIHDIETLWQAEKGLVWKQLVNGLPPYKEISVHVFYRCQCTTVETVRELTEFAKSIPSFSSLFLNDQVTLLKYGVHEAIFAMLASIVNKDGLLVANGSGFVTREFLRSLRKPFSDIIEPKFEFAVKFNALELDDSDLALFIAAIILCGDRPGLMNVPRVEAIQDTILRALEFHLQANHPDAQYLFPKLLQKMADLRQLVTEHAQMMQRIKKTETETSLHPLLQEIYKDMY
The experiment in a line: Agonist activity against human PPAR delta receptor in CV-1 cell was determined. The assay is classed as functional, cell-based.

Assay [4] addresses T4, Peroxisome proliferator-activated receptor delta (Homo sapiens) (UniProt Q03181).
T4 sequence (whole entry): T3 sequence (Q03181 whole entry)
The assay can be described thus: Percent activation for human Peroxisome proliferator activated receptor delta. The assay is classed as functional.

Assay [5] has as its target T1, Peroxisome proliferator-activated receptor alpha. The assay can be described thus: Agonist activity against human Peroxisome proliferator activated receptor alpha in CV-1 cell was determined. The assay is classed as functional, cell-based.
Assay [6] deals with T2, Peroxisome proliferator-activated receptor gamma. The experiment in a line: Agonist activity against human peroxisome proliferator activated receptor gamma in CV-1 cell was determined. In kind it is functional, cell-based.
Assay [7] concerns the target T3, Peroxisome proliferator-activated receptor delta. The assay can be described thus: Agonist activity against human Peroxisome proliferator activated receptor delta in CV-1 cell was determined. In kind it is functional, cell-based.
Assay [8] has as its target T1, Peroxisome proliferator-activated receptor alpha. The assay can be described thus: Agonist activity against human Peroxisome proliferator activated receptor alpha was determined. In kind it is functional.
In assay [9] the target is T2, Peroxisome proliferator-activated receptor gamma. The experiment in a line: Agonist activity against human peroxisome proliferator activated receptor gamma was determined. In kind it is functional.

By EC50 is commonly meant the concentration that produces a half-maximal response. As to `CC(C)OC(Cc1ccc(OCCc2noc(-c3ccccc3)n2)cc1)C(=O)O` (stereo not drawn), the EC50 in assay [1] was 2000 nM; in assay [2], 13 nM.
Turning to `Cc1ccccc1-c1nc(COc2ccc(CC(OC(C)C)C(=O)O)cc2)no1` (stereo not drawn), the results for the EC50 in assay [3], in [1] and in assay [2] were 1600 nM, 40 nM and 100 nM, respectively.
With `CC(C)OC(Cc1ccc(OCCc2noc(-c3ccc(F)cc3)n2)cc1)C(=O)O` (stereo not drawn), the EC50 is 790 nM in assay [1] and 40 nM in assay [2].
The molecule `CC(C)OC(Cc1ccc(OCc2noc(-c3cc(C(F)(F)F)cc(C(F)(F)F)c3)n2)cc1)C(=O)O` (stereo in doubt; -1n) [listing 1 of 2 here] returned an Activation in [4] of 40%.
Turning to `CC(C)OC(Cc1ccc(OCc2noc(-c3cc(C(F)(F)F)cc(C(F)(F)F)c3)n2)cc1)C(=O)O` (stereo in doubt; -1n) [listing 2 of 2 here], the EC50 in assay [5] amounted to 4 nM; in assay [6], 32 nM; in [7], 630 nM.
On to `CC(C)OC(Cc1ccc(OCc2noc(-c3ccc(Br)cc3)n2)cc1)C(=O)O` (stereo not drawn), for which the EC50 in assay [3] came out at 790 nM; in assay [1], 40 nM; in assay [2], 32 nM.
The like results for `CC(C)OC(Cc1ccc(OCc2noc(-c3ccc(C(F)(F)F)cc3)n2)cc1)C(=O)O` (stereo not drawn) were, in that order, 500 nM, 32 nM and 25 nM.
In the case of `CC(C)OC(Cc1ccc(OCCc2noc(-c3cc(C(F)(F)F)cc(C(F)(F)F)c3)n2)cc1)C(=O)O` (stereo not drawn), the EC50 in [8] came out at 50 nM; in assay [9] it was 4 nM. The Activation in assay [4] was less than 40%.
Take `CC(C)OC(Cc1ccc(OCc2noc(-c3cc(C(F)(F)F)cc(C(F)(F)F)c3)n2)cc1)C(=O)O` (stereo in doubt; (+)1n) [listing 1 of 2 here]: the EC50 was found to be 2500 nM in [5], 630 nM in assay [6] and 790 nM in [7].
For `CC(C)OC(Cc1ccc(OCCc2noc(-c3ccc(Cl)cc3)n2)cc1)C(=O)O` (stereo not drawn), the concentration for a half-maximal effect (EC50) in assay [1] came to 400 nM; in assay [2], 25 nM.
With `CC(C)OC(Cc1ccc(OCc2noc(-c3ccc(C(C)(C)C)cc3)n2)cc1)C(=O)O` (stereo not drawn), the figures for the EC50 in assay [3], in assay [1] and in assay [2] were 5000 nM, 40 nM and 3 nM, respectively.
The matching figures for `CC(C)OC(Cc1ccc(OCCc2noc(-c3cccc(Cl)c3)n2)cc1)C(=O)O` (stereo not drawn): 100 nM, 320 nM and 4 nM.
As to `CC(C)OC(Cc1ccc(OCc2noc(-c3ccccc3)n2)cc1)C(=O)O` (stereo not drawn), the EC50 turned out to be 10000 nM in assay [3], 160 nM in assay [1] and 79 nM in [2].
Regarding `CC(C)OC(Cc1ccc(OCCc2noc(-c3ccccc3C(F)(F)F)n2)cc1)C(=O)O` (stereo not drawn), the results for the EC50 in assay [5], in assay [6] and in assay [7] were 400 nM, 160 nM and 2500 nM, respectively.
As to `Cc1ccc(-c2nc(COc3ccc(CC(OC(C)C)C(=O)O)cc3)no2)cc1` (stereo not drawn), the figures for the EC50 in assay [3], in assay [1] and in assay [2] were 2500 nM, 25 nM and 16 nM, respectively.
The matching figures for `CC(C)OC(Cc1ccc(OCc2noc(-c3ccc(OC(F)(F)F)cc3)n2)cc1)C(=O)O` (stereo not drawn): 7900 nM, 20 nM and 63 nM.
On to `CC(C)OC(Cc1ccc(OCCc2noc(-c3cccc(C(F)(F)F)c3)n2)cc1)C(=O)O` (stereo not drawn), for which the EC50 in assay [3] was 500 nM; in assay [1], 200 nM; in assay [2] it was 6 nM.
The matching figures for `CC(C)OC(Cc1ccc(OCc2noc(-c3cc(C(F)(F)F)cc(C(F)(F)F)c3)n2)cc1)C(=O)O` (stereo not drawn): 320 nM, 6 nM and 32 nM.
In the case of `CC(C)OC(Cc1ccc(OCc2noc(-c3ccc(C(C)C)cc3)n2)cc1)C(=O)O` (stereo not drawn), the values for the EC50 in assay [3], in assay [1] and in assay [2] were 7900 nM, 13 nM and 4 nM, respectively.
The matching figures for `CC(C)OC(Cc1ccc(OCc2noc(-c3ccc(Cl)cc3)n2)cc1)C(=O)O` (stereo not drawn): 500 nM, 13 nM and 20 nM.
The matching figures for `CC(C)OC(Cc1ccc(OCc2noc(-c3cc(F)cc(F)c3)n2)cc1)C(=O)O` (stereo not drawn): 160 nM, 40 nM and 100 nM.
The matching figures for `CC(C)OC(Cc1ccc(OCCc2noc(-c3cccc(F)c3)n2)cc1)C(=O)O` (stereo not drawn): 4000 nM, 500 nM and 2 nM.
Take `CC(C)OC(Cc1ccc(OCc2noc(-c3ccc(F)cc3)n2)cc1)C(=O)O` (stereo not drawn): the results for the EC50 in assay [3], in assay [1] and in assay [2] were 7900 nM, 160 nM and 200 nM, respectively.
In assay [4], `CC(C)OC(Cc1ccc(OCc2noc(-c3cc(C(F)(F)F)cc(C(F)(F)F)c3)n2)cc1)C(=O)O` (stereo in doubt; (+)1n) [listing 2 of 2 here] registered an Activation of 40%.
Consider `Cc1cccc(-c2nc(COc3ccc(CC(OC(C)C)C(=O)O)cc3)no2)c1` (stereo not drawn), for which the EC50 in assay [3] worked out at 1600 nM; in [1], 79 nM; in [2], 50 nM.
Regarding `CC(C)OC(Cc1ccc(OCc2noc(C3CCCCC3)n2)cc1)C(=O)O` (stereo not drawn), the EC50 in assay [1] was found to be 240 nM; in [2], 230 nM.
Take `CC(C)OC(Cc1ccc(OCc2noc(-c3cccc(F)c3)n2)cc1)C(=O)O` (stereo not drawn): the EC50 is 7900 nM in assay [3], 79 nM in [1] and 100 nM in assay [2].

The record behind these values is ChEMBL document CHEMBL1133944, “Identification of a series of oxadiazole-substituted alpha-isopropoxy phenylpropanoic acids with activity on PPARalpha, PPARgamma, and PPARdelta” (Bioorg Med Chem Lett, 2001).
